Measured values from patent EP4603105A1, “PHARMACEUTICAL COMPOSITION CONTAINING CYCLIC COMPOUND HAVING SELECTIVE KRAS INHIBITORY EFFECT AGAINST HRAS AND NRAS” (CHUGAI SEIYAKU KABUSHIKI KAISHA, priority 2022, dated 2024).
Read-outs that look alike come from different tables or passages of the source. *1 amine or outer side, *2 acyl side, *3 side chain or, on linkers, in order; H or OH if unused. Where a SMILES comes first, the peptide text is derived from it. Bridges are numbered along the chain shown (N, C = ends). [ ]: non-standard residue; d: D form. The star is where a group is joined. hPhe(3,5-F2-4-CF3) = N[C@@H](CCc1cc(F)c(C(F)(F)F)c(F)c1)C(=O)O; hPhe(3-Cl-4-CF3) = N[C@@H](CCc1ccc(C(F)(F)F)c(Cl)c1)C(=O)O; X43 = COCCCN([C@@H](Cc1ccc(C(F)(F)F)cc1)C(=O)[*:2])[*:1]; NPrPhe(4-CF3) = CCCN[C@@H](Cc1ccc(C(F)(F)F)cc1)C(=O)O; NMeGly(cPent) = CN[C@H](C(=O)O)C1CCCC1; Pro(4,4-F2) = O=C(O)[C@@H]1CC(F)(F)CN1; NMeD = CN[C@@H](CC(=O)O)C(=O)O; NMeL = CN[C@@H](CC(C)C)C(=O)O; αMeL = CC(C)C[C@](C)(N)C(=O)O; Morpholide = C1CN(*)CCO1; Ac5c = NC1(C(=O)O)CCCC1; Sar = CNCC(=O)O

Assays:
HRAS wild-type protein = HRAS wild-type protein (Homo sapiens, UniProt P01112); assay: Binding to HRAS by surface plasmon resonance (SPR), KD and KD ratio to KRAS
Chain of HRAS wild-type protein (P01112 whole entry): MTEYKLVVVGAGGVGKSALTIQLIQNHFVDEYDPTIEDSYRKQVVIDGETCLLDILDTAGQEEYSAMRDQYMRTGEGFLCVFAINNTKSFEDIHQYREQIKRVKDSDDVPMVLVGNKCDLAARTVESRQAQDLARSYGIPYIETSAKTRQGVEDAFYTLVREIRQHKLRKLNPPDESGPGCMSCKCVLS
How it was run: (§1)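 Recombinant RAS proteins bearing a biotinylated Avi tag and loaded with GDP served as the captured ligand, recaptured fresh every cycle. Binding responses were referenced to an uncoated surface and a buffer-only blank cycle. Dissociation constants were obtained by 1:1 model fitting at 30°C.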

[1] = tested on: human lung cancer strain NCI-H441; assay type: cell-based
How it was run: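 Signal came from […] measured per well once the reagent was added. Beforehand, cells were cultured at 37°C and 5% carbon dioxide on a compound series serially diluted in dimethyl sulfoxide.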

[2] = target: GDP-bound NRAS wild-type protein (Homo sapiens, UniProt P01111); assay: Binding to NRAS by surface plasmon resonance (SPR), KD and KD ratio to KRAS
Chain of GDP-bound NRAS wild-type protein (P01111 whole entry): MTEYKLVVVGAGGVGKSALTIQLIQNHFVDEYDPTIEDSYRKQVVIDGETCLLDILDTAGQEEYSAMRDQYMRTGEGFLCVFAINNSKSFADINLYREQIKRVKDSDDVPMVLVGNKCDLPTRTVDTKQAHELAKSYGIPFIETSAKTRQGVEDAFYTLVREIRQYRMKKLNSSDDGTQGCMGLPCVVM
How it was run: as §1

[3] = ratio of the KD value with respect to HRAS wild-type protein to the KD value with respect to KRAS
[4] = ratio of the KD value with respect to GDP-bound NRAS wild-type protein to the KD value with respect to KRAS
[5] = ratio of KD for HRAS wild-type protein to KD for KRAS
[6] = ratio of KD for GDP-bound NRAS wild-type protein to KD for KRAS

Structure (SMILES)	HRAS /KRAS (HRAS wild-type protein; [3])	IC50 [1]	NRAS /KRAS [2, 4]	HRAS /KRAS (HRAS wild-type protein; [5])	IC50 ([1]; NCI-H441 cells, 4 days, CellTiter-Glo, read-out: NCl-H441 IC50)	NRAS /KRAS [2, 6]
CCCN1C(=O)CN(C)C(=O)CN(C)C(=O)[C@H]([C@@H](C)CC)NC(=O)[C@H](CC(C)C)N(C)C(=O)C[C@@H](C(=O)N(C)C)N(C)C(=O)[C@H](C2CCCC2)N(C)C(=O)[C@](C)(CC(C)C)NC(=O)[C@@H]2CCCN2C(=O)[C@H](CCc2cc(F)c(C(F)(F)F)c(F)c2)NC(=O)CN(C)C(=O)[C@@H]1Cc1ccc(C(F)(F)F)cc1 [PP0738] ([NMeL]I[Sar][Sar][NPrPhe(4-CF3)][Sar][hPhe(3,5-F2-4-CF3)]P[αMeL][NMeGly(cPent)][NMeD]-NMe2; lactam N-11)	B (a compound having 3 or more and less than 10 is denoted as B)	99.2 nM	B (a compound having 3 or more and less than 10 is denoted as B)	–	–	–
CCCN(C)C(=O)[C@@H]1CC(=O)N(C)[C@@H](CCOC)C(=O)N[C@@H]([C@@H](C)CC)C(=O)N(C)CC(=O)N(C)[C@H]2C/C=C\CCN(C2=O)[C@@H](Cc2ccc(C(F)(F)F)cc2)C(=O)N(C)CC(=O)N[C@@H](CCc2ccc(C(F)(F)F)c(OC)c2)C(=O)N2C[C@@H](C)C[C@H]2C(=O)NC2(CC(C)(C)C2)C(=O)N(C)[C@@H](C2CCCC2)C(=O)N1C [PP2001]	A (a compound having 10 or more and less than 20 is denoted as A)	18.1 nM	A (a compound having 10 or more and less than 20 is denoted as A)	–	–	–
CC[C@H](C)[C@@H]1NC(=O)[C@H](CC(C)C)N(C)C(=O)C[C@@H](C(=O)N2CCOCC2)N(C)C(=O)[C@H](C2CCCC2)N(C)C(=O)C2(CC2)NC(=O)[C@@H]2CCCN2C(=O)[C@H](CCc2cc(F)c(C(F)(F)F)c(F)c2)NC(=O)CN(C)C(=O)[C@H](Cc2ccc(C(F)(F)F)cc2)N2CCCC[C@@H](C2=O)N(C)C(=O)CN(C)C1=O [PP0559]	B (a compound having 3 or more and less than 10 is denoted as B)	23.1 nM	B (a compound having 3 or more and less than 10 is denoted as B)	–	–	–
CC[C@H](C)[C@@H]1NC(=O)[C@H](CC(C)C)N(C)C(=O)C[C@@H](C(=O)N2CCOCC2)N(C)C(=O)[C@H](C2CCCC2)N(C)C(=O)C2(CCCC2)NC(=O)[C@@H]2CCCN2C(=O)[C@H](CCc2cc(F)c(C(F)(F)F)c(F)c2)NC(=O)CN(C)C(=O)[C@H](Cc2ccc(C(F)(F)F)cc2)N2CCCCC[C@@H](C2=O)N(C)C(=O)[C@@H]2CCN2C1=O [PP0484]	B (a compound having 3 or more and less than 10 is denoted as B)	165 nM	A (a compound having 10 or more and less than 20 is denoted as A)	–	–	–
CCC[C@H]1C(=O)N[C@@H]([C@@H](C)CC)C(=O)N(C)CC(=O)N(C)[C@H]2C/C=C\CCN(C2=O)[C@@H](Cc2ccc(C(F)(F)F)cc2)C(=O)N(C)CC(=O)N[C@@H](CCc2cc(F)c(Cl)c(OC)c2)C(=O)N2C[C@H](OCC)C[C@H]2C(=O)NC2(CC(C)(C)C2)C(=O)N(C)[C@@H](C2CCCC2)C(=O)N(C)[C@H](C(=O)N(C)C)CC(=O)N1C [PP2864]	–	–	–	A (a compound having 10 or more and less than 20 is denoted as A)	124 nM	A (a compound having 10 or more and less than 20 is denoted as A)
CCO[C@@H]1C[C@H]2C(=O)NC3(CCCC3)C(=O)N(C)[C@@H](C3CCCC3)C(=O)N(C)[C@H](C(=O)N3CCOCC3)CC(=O)N(C)[C@@H](CC(C)C)C(=O)N[C@@H]([C@@H](C)CC)C(=O)N(C)CC(=O)N(C)[C@H]3CCCCN(C3=O)[C@@H](Cc3ccc(C(F)(F)F)cc3)C(=O)N(C)CC(=O)N[C@@H](CCc3cc(F)c(C(F)(F)F)c(F)c3)C(=O)N2C1 [PP0554]	B (a compound having 3 or more and less than 10 is denoted as B)	1.6 nM	B (a compound having 3 or more and less than 10 is denoted as B)	–	–	–
CCCN1C(=O)CN(C)C(=O)CN(C)C(=O)[C@H]([C@@H](C)CC)NC(=O)[C@H](CC(C)C)N(C)C(=O)C[C@@H](C(=O)N2CCOCC2)NC(=O)[C@H](C2CCCC2)N(C)C(=O)C2(CCCC2)NC(=O)[C@@H]2CC(F)(F)CN2C(=O)[C@H](CCc2ccc(C(F)(F)F)c(Cl)c2)NC(=O)CN(C)C(=O)[C@@H]1Cc1ccc(C(F)(F)F)cc1 [PP0321] ([NMeL]I[Sar][Sar][NPrPhe(4-CF3)][Sar][hPhe(3-Cl-4-CF3)][Pro(4,4-F2)][Ac5c][NMeGly(cPent)]D-Morpholide; lactam N-11)	–	55.7 nM	–	B (a compound having 3 or more and less than 10 is denoted as B)	–	B (a compound having 3 or more and less than 10 is denoted as B)
CC[C@H](C)[C@@H]1NC(=O)[C@H](CC(C)C)N(C)C(=O)C[C@@H](C(=O)N2CCOCC2)N(C)C(=O)[C@H](C2CCCC2)N(C)C(=O)C2(CCCC2)NC(=O)[C@@H]2CCCN2C(=O)[C@H](CCc2ccc(C(F)(F)F)c(Cl)c2)NC(=O)CN(C)C(=O)[C@H](Cc2ccc(C(F)(F)F)cc2)N(CCCOC)C(=O)CN(C)C(=O)CN(C)C1=O [PP0133] ([NMeL]I[Sar][Sar][X43][Sar][hPhe(3-Cl-4-CF3)]P[Ac5c][NMeGly(cPent)][NMeD]-Morpholide; lactam N-11)	–	6.4 nM	–	C (A compound having a KD ratio of 0.1 or more and less than 3 is denoted as C)	–	B (a compound having 3 or more and less than 10 is denoted as B)
